Source: ChEMBL document CHEMBL3734712, “Sanguiin H6 suppresses TGF-β induction of the epithelial-mesenchymal transition and inhibits migration and invasion in A549 lung cancer” (Bioorg Med Chem Lett, 2015)
Activity calls are given as the source filed them. The calls are words filed in the database; no cut-off is given here.

Assays:
A549 [1] = experiment: Inhibition of TGF-beta1 induced epithelial-mesenchymal transition in human A549 cells assessed as reduction in nuclear phosphorylated SMAD2 level preincubated for 2 hrs by Western blot method; format: functional, cell-based
A549 [2] = experiment: Inhibition of TGF-beta1-induced upregulation of Snail protein expression in human A549 cells preincubated for 2 hrs by Western blot method; format: functional, cell-based
A549 [3] = experiment: Inhibition of TGF-beta1-induced plasminogen activator inhibitor type 1 expression in human A549 cells assessed at 5 to 10 uM preincubated for 2 hrs by Western blot method; format: functional, cell-based
A549 [4] = experiment: Inhibition of TGF-beta1 induced epithelial-mesenchymal transition in human A549 cells assessed as reduction in phosphorylated SMAD2 level preincubated for 2 hrs followed by TGF-beta1 addition by Western blot method; format: functional, cell-based
A549 [5] = experiment: Inhibition of TGF-beta1 induced epithelial-mesenchymal transition in human A549 cells assessed as reduction in […] level AT 5 AND 10 uM incubated for 48 hrs by qRT-PCR method; format: functional, cell-based
A549 [6] = experiment: Inhibition of TGF-beta1 induced epithelial-mesenchymal transition in human A549 cells assessed as reduction in nuclear SMAD3 level preincubated for 2 hrs by Western blot method; format: functional, cell-based
A549 [7] = experiment: Inhibition of TGF-beta1 response promoter transactivation mediated SMAD2 and SMAD3 phosphorylation in human A549 cells at 5 to 10 uM preincubated for 2 hrs by dual luciferase reporter assay; format: functional, cell-based
A549 [8] = experiment: Inhibition of TGF-beta1 induced epithelial-mesenchymal transition in human A549 cells assessed as reduction in PAI1 level AT 5 AND 10 uM incubated for 48 hrs by qRT-PCR method; format: functional, cell-based
A549 [9] = experiment: Inhibition of TGF-beta1 induced epithelial-mesenchymal transition in human A549 cells assessed as reduction in CDH2 level AT 5 AND 10 uM incubated for 48 hrs by qRT-PCR method; format: functional, cell-based
A549 [10] = experiment: Inhibition of TGF-beta1-induced upregulation of mesenchymal marker N-cadherin expression in human A549 cells at 5 to 10 uM preincubated for 2 hrs by Western blot method; format: functional, cell-based
A549 [11] = experiment: Inhibition of TGF-beta1 induced epithelial-mesenchymal transition in human A549 cells assessed as reduction in SPARC level AT 5 AND 10 uM incubated for 48 hrs by qRT-PCR method; format: functional, cell-based
A549 [12] = experiment: Inhibition of TGF-beta1 induced epithelial-mesenchymal transition in human A549 cells assessed as reduction in nuclear phosphorylated SMAD3 level preincubated for 2 hrs by Western blot method; format: functional, cell-based
A549 [13] = experiment: Inhibition of TGF-beta1 induced epithelial-mesenchymal transition in human A549 cells assessed as reduction in COL5A2 level AT 5 AND 10 uM incubated for 48 hrs by qRT-PCR method; format: functional, cell-based
A549 [14] = experiment: Inhibition of TGF-beta1-induced downregulation of epithelial marker E-cadherin expression in human A549 cells at 5 to 10 uM preincubated for 2 hrs by Western blot method; format: functional, cell-based
A549 [15] = experiment: Inhibition of TGF-beta1 induced epithelial-mesenchymal transition in human A549 cells assessed as reduction in nuclear SMAD2 level preincubated for 2 hrs by Western blot method; format: functional, cell-based
A549 [16] = experiment: Inhibition of TGF-beta1 stimulated invasion in human A549 cells at 5 to 10 uM incubated for 48 hrs by matrigel invasion assay; format: functional, cell-based
A549 [17] = experiment: Inhibition of TGF-beta1 induced epithelial-mesenchymal transition in human A549 cells assessed as reduction in CALD1 level AT 5 AND 10 uM incubated for 48 hrs by qRT-PCR method; format: functional, cell-based
A549 [18] = experiment: Inhibition of TGF-beta1 induced epithelial-mesenchymal transition in human A549 cells assessed as reduction in SNAI1 level AT 5 AND 10 uM incubated for 48 hrs by qRT-PCR method; format: functional, cell-based
A549 [19] = experiment: Inhibition of TGF-beta1-induced […] Snail promoter activity in human A549 cells at 5 to 10 uM preincubated for 2 hrs by dual luciferase reporter assay; format: functional, cell-based
A549 [20] = experiment: Inhibition of TGF-beta1 induced epithelial-mesenchymal transition in human A549 cells assessed as reduction in SNAI2 level AT 5 AND 10 uM incubated for 48 hrs by qRT-PCR method; format: functional, cell-based
A549 [21] = experiment: Inhibition of TGF-beta1-induced matrix metalloproteinase-9 expression in human A549 cells at 5 to 10 uM preincubated for 2 hrs by Western blot method; format: functional, cell-based
A549 [22] = experiment: Inhibition of TGF-beta1 induced epithelial-mesenchymal transition in human A549 cells assessed as reduction in ITGA5 level AT 5 AND 10 uM incubated for 48 hrs by qRT-PCR method; format: functional, cell-based
A549 [23] = experiment: Cytotoxicity against human A549 cells assessed as cell viability at 50 to 100 uM after 48 hrs by WST-8 staining based CCK8 assay; settings: a549, 48 h
A549 [24] = experiment: Inhibition of TGF-beta1 induced cell migration in human A549 cells assessed as reduction in cell surface area incubated for 48 hrs by wound healing assay; format: functional, cell-based
A549 [25] = experiment: Inhibition of TGF-beta1 induced epithelial-mesenchymal transition in human A549 cells assessed as reduction in phosphorylated SMAD3 level preincubated for 2 hrs followed by TGF-beta1 addition by Western blot method; format: functional, cell-based
A549 [26] = experiment: Cytotoxicity against human A549 cells assessed as cell viability at 1 to 25 uM after 48 hrs by WST-8 staining based CCK8 assay; settings: a549, 48 h
A549 [27] = experiment: Inhibition of TGF-beta1 induced epithelial-mesenchymal transition in human A549 cells assessed as morphological changes at 5 to 10 uM preincubated for 2 hrs followed by TGF-beta1 addition; format: functional, cell-based

For `O=C(O[C@@H]1O[C@@H]2COC(=O)c3cc(O)c(O)c(O)c3-c3c(cc(O)c(O)c3O)C(=O)O[C@H]2[C@@H]2OC(=O)c3cc(O)c(O)c(O)c3-c3c(cc(O)c(O)c3O)C(=O)O[C@H]12)c1cc(O)c(O)c(Oc2c(O)c(O)c(O)c3c2C(=O)O[C@H]2[C@@H]4OC(=O)c5cc(O)c(O)c(O)c5-c5c(cc(O)c(O)c5O)C(=O)O[C@@H]4[C@@H](OC(=O)c4cc(O)c(O)c(O)c4)O[C@@H]2COC(=O)c2cc(O)c(O)c(O)c2-3)c1`, the inhibition (A549 [1]) was “Dose-dependent effect”, the inhibition (A549 [2]) was “Dose-dependent effect” and the inhibition (A549 [3]) was “Dose-dependent effect”. For the same compound, the inhibition (A549 [4]) was “Dose-dependent effect”, the inhibition (A549 [5]) was “Active” and the inhibition (A549 [6]) was “Dose-dependent effect”. For the same compound, the inhibition (A549 [7]) was “Active”, the inhibition (A549 [8]) was “Active” and the inhibition (A549 [9]) was “Active”. The inhibition (A549 [10]) was “Active”, the inhibition (A549 [11]) was “Active” and the inhibition (A549 [12]) was “Dose-dependent effect”. The inhibition (A549 [13]) was “Active”, the inhibition (A549 [14]) was “Active” and the inhibition (A549 [15]) was “Dose-dependent effect”. For the same compound, the inhibition (A549 [16]) was “Active”, the inhibition (A549 [17]) was “Active” and the inhibition (A549 [18]) was “Active”. For the same compound, the inhibition (A549 [19]) was “Active”, the inhibition (A549 [20]) was “Active” and the inhibition (A549 [21]) was “Active”. For the same compound, the inhibition (A549 [22]) was “Active”, the Activity (A549 [23]) was “Toxic” and the inhibition (A549 [24]) was “Dose-dependent effect”. For the same compound, the inhibition (A549 [25]) was “Dose-dependent effect”, the Activity (A549 [26]) was “Non-toxic” and the inhibition (A549 [27]) was “Active”.
